Experimental findings from US10308642B2, “Anti-hepatitis B virus agent” (FUJIFILM Toyama Chemical Co., Ltd., priority 2015, dated 2019) are described below.

Where two headings read alike, the source gives them in different places.

Test [1] has as its system HBV. In words: Anti-HBV assay in HepG2.2.15 cells (HBV DNA by real-time PCR, HBsAg by chemiluminescent enzyme immunoassay in culture supernatant). As to conditions: Hepatitis B virus, 144 h, 6 days treatment. It is filed as cell-based. As to the method: The anti-HBV activity of compounds 1 to 16 was evaluated as follows by using HepG2.2.15 cells (Proc. Natl. Acad. Sci. USA, 84, 1005-1009, 1987), which are obtained by introducing the HBV genome into hepatoblastoma cell line, HepG2, and persistently produce the virus.
The following was used as a medium: DMEM/F-12,GlutaMAX(manufactured by Invitrogen)+5 μg/mL insulin (manufactured by Wako)+1% penicillin/streptomycin(manufactured by Sigma)+10 mmol/L HEPES(manufactured by Sigma)+50 μmol/L hydrocortisone(manufactured by Sigma)+10% FBS
A mixture of each test compound with dimethyl sulfoxide (DMSO) was added to the medium to obtain a final concentration of DMSO of 1% (v/v), and thus, test solutions containing the test compound in various concentrations were prepared. In addition, a test solution obtained by adding DMSO alone to the medium to obtain a final concentration of 1% (v/v) was prepared as a control without drug.
(1) The HepG2.2.15 cells were suspended in the medium and prepared a cell suspension at 1.5×10^5 cells/mL. The suspension was seeded in a 96-well microtiter plate (100 μL/well) and the plate was incubated in a 5% CO2 incubator at 37° C. for 1 day.
(2) After removing the culture supernatant, the cells were washed twice with PBS(−) (100 μL/well) and then once with the medium (100 μL/well).
(3) Each test solution was added to the plate (100 μL/well), and the plate was incubated in a 5% CO2 incubator at 37° C. for 3 days.
(4) After removing the culture supernatant, the test solution was added to the plate again (100 μL/well) and the plate was incubated in a 5% CO2 incubator at 37° C. for 3 days.
(5) The culture supernatant was collected and treated with a mixture of Buffer AL (manufactured by QIAGEN) and Proteinase K (manufactured by Invitrogen). The amount of HBV DNA in the solution was quantified by real-time PCR. In addition, the amount of HBsAg (hepatitis B surface antigen) in the culture supernatant was quantified by chemiluminescent enzyme immunoassay using a Lumipulse HBsAg-HQ (manufactured by Fujirebio Inc.). The relative viral load (%) of a well with the compound to a well without the compound was calculated. An IC50 of each compound was calculated using the FORECAST function (linear regression method) of Microsoft Excel 2007 by plotting the logarithm of the concentration against the relative viral load as a real number.
(In general: Real-time PCR tracks product formation cycle by cycle.)

Test [2] deals with HBV. The experiment in a line: Anti-HBV assay in PXB-cells (fresh human hepatocytes from PXB mouse infected with HBV genotype AeUS). The test is classed as cell-based, hepatitis B virus (HBV). As to conditions: 10 μmol/L. As to the method: The anti-HBV activity of compound 8 was evaluated as follows by using fresh human hepatocyte (The PXB-cells were produced by PhenixBio Co., Ltd.) derived from a PXB mouse (a chimeric mouse with human hepatocyte).
The following was used as a medium:
500 mL DMEM (manufactured by Sigma)+0.25 μg/mL insulin (manufactured by Wako)+1% penicillin/streptomycin. (manufactured by Sigma)+20 mmol/L HEPES (manufactured by Sigma)+15 μg/mL L-proline (manufactured by Sigma)+50 nmol/L dexamethasone (manufactured by Sigma)+5 ng/mL EGF (manufactured by Peprotech)+0.1 mmol/L ascorbic acid 2-phosphate (manufactured by Wako)+10% FBS+2% DMSO
Compound 8 was further added to the medium to prepare a 10 μmol/L test solution.
(1) The PXB-cells seeded at a 2.1×10^5 cells/cm^2 in a 48-well microliter plate were incubated in a 5% CO2 incubator at 37° C. for 5 days.
(2) HBV derived from PXB mouse serum (genotype AeUS) was added to the medium supplemented with 4% PEG-8000. The PXB cells were infected with this solution at about 10 copies/cell (250 μL/well) and the plate was incubated in a 5% CO2 incubator at 37° C. for 1 day.
(3) After the culture supernatant had been removed, the cells were washed three times with DMEM supplemented with 10% FBS and 1% penicillin/streptomycin. The medium was added to the plate (250 μL/well) and the plate was incubated in a 5% CO2 incubator at 37° C. for 1 day.
(4) After removing the culture supernatant, the cells were washed three times with DMEM supplemented with 10% FBS and 1% penicillin/streptomycin. […]
(11) The collected culture supernatant on day 32 post infection was purified using a QIAamp DNA Blood Mini Kit (manufactured by QIAGEN) and the amount of HVB DNA was quantified by real-time PCR. In addition, the amount of HBsAg (hepatitis B surface antigen) in the culture supernatant was quantified by chemiluminescent enzyme immunoassay using a Lumipulse HBsAg-HQ (manufactured by Fujirebio Inc.). The relative viral load (%) of a well with the compound to a well without the compound was calculated.

The mark [3] stands for this setting: HBV DNA in culture supernatant, real-time PCR, read-out: IC50 (μM) HBV-DNA.
Setting [4] is: HBsAg in culture supernatant, chemiluminescent enzyme immunoassay, read-out: IC50 (μM) HBsAg.
Where [5] appears, read: culture supernatant on day 32 post infection, relative to well without compound.

As usually defined, the IC50 is the concentration at which inhibition is half-maximal. Turning to `O=C(O)c1cn(-c2ccc(F)cc2)c(-c2ccc(N3CCCC3)cc2)cc1=O` [Compound 1], the figures for the concentration for half-maximal inhibition (IC50) with HBV [1] (setting [3]) and with HBV [1] (setting [4]) were 0.051 µM and 1.1 µM, respectively.
Regarding `O=C(O)c1cn(-c2ccc(F)cc2)c(-c2sccc2-c2ccc([N+](=O)[O-])cc2)cc1=O` [Compound 2], the values for the IC50 with HBV [1] (setting [3]) and in the test on HBV [1] (setting [4]) were 0.16 µM and 0.79 µM, respectively.
With `CN(C)c1ccc(-c2cc(=O)c(C(=O)O)cn2-c2cccc(F)c2)cc1` [Compound 3], the IC50 was found to be 0.86 µM with HBV [1] (setting [3]) and 5.7 µM with HBV [1] (setting [4]).
For `O=C(O)c1cn(-c2ccc(F)cc2F)c(-c2ccc(N3CCCC3)cc2)cc1=O` [Compound 4] the same measures were 0.088 µM and 2.1 µM.
For `COc1ccc(-n2cc(C(=O)O)c(=O)cc2-c2ccc(N(C)C)cc2)cc1` [Compound 5] the same measures were 0.33 µM and 4.6 µM.
With `O=C(O)c1cn(-c2ccc(F)cc2)c(-c2cc3ccccc3s2)cc1=O` [Compound 6], the IC50 with HBV [1] (setting [3]) came to 1.1 µM; with HBV [1] (setting [4]), 5.8 µM.
`CN(C)c1ccc(-c2cc(=O)c(C(=O)O)cn2-c2ccccc2F)cc1` [Compound 7]: the IC50 in the test on HBV [1] (setting [3]) was 1.1 µM; in the test on HBV [1] (setting [4]), 4.6 µM.
As to `CN(C)c1ccc(-c2cc(=O)c(C(=O)O)cn2-c2ccc3c(c2)OCO3)cc1` [Compound 8], the IC50 with HBV [1] (setting [3]) turned out to be 0.25 µM. Moreover, the IC50 with HBV [1] (setting [4]) was 1.2 µM. Besides, in the test with HBV [2] (setting [5]), the “relative viral load with respect to the amount of HBV DNA” value was 16% and the “relative viral load with respect to the amount of HBsAg” value is recorded as 29%. Further, in the test on HBV [2] (statement in words), the anti-HBV activity result is “excellent anti-HBV activity”.
Consider `O=C(O)c1cn(-c2ccc(F)cc2F)c(-c2cc3ccccc3s2)cc1=O` [Compound 9], for which the IC50 in the test with HBV [1] (setting [3]) stood at 0.23 µM; in the test on HBV [1] (setting [4]), 3.6 µM.
Turning to `CN(C)c1ccc(-c2cc(=O)c(C(=O)O)cn2-c2ccccc2O)cc1` [Compound 10], the IC50 in the test with HBV [1] (setting [3]) turned out to be 2.1 µM; in the test on HBV [1] (setting [4]) it was 6.9 µM.
For `Cc1cc(-n2cc(C(=O)O)c(=O)cc2-c2ccc(N(C)C)cc2)ccc1O` [Compound 11] the same measures were 0.8 µM and 3.7 µM.
For `COc1ccc(-n2cc(C(=O)O)c(=O)cc2-c2ccc(N(C)C)cc2)c(F)c1` [Compound 12] the same measures were 1.4 µM and 4.9 µM.
For `Cc1cc(O)ccc1-n1cc(C(=O)O)c(=O)cc1C1CCC(Br)C(Br)C1` (centres unmarked) [Compound 13] the same measures were 0.49 µM and 1.8 µM.
With `O=C(O)c1cn(-c2ccc(F)cc2)c(-c2ccc(-c3cccs3)cc2)cc1=O` [Compound 14], the figures for the IC50 with HBV [1] (setting [3]) and with HBV [1] (setting [4]) were 0.91 µM and 4.2 µM, respectively.
For `CN(C)c1ccc(-c2cc(=O)c(C(=O)O)cn2-c2cc(Cl)c(O)c(Cl)c2)cc1` [Compound 15] the same measures were 4.5 µM and 11 µM.
For `CNc1ccc(-c2cc(=O)c(C(=O)O)cn2-c2ccc(F)cc2)cc1` [Compound 16] the same measures were 7.9 µM and 35 µM.
